The text below walks through data of ChEMBL document CHEMBL1154917, “Flavanone and diphenylpropane glycosides and glycosidic acyl esters from Viscum articulatum” (J Nat Prod, 2010).

In series [1] the test system is Radical scavenging activity. Briefly: Antioxidant activity assessed as DPPH radical scavenging activity after 30 mins. Type of series: functional. (In general: DPPH is a stable violet radical that fades when it is reduced.)
The subject of series [2] is RAW264.7. As to the kind of experiment: Antiinflammatory activity against mouse RAW264.7 cells assessed as Inhibition of LPS-induced nitric oxide production after 24 hrs by ELISA. The class given is functional, cell-based. The conditions noted are these: RAW264.7, 24 h. On the technique in general: An ELISA detects its analyte on a solid surface through an enzyme-linked reagent.

Series [3] is described as follows: Cytotoxicity against mouse RAW264.7 cells assessed as cell viability at 1 to 20 uM after 24 hrs by MTT assay relative to control. The class given is cell-based. The conditions noted are these: read-out: Activity. A general note: Formazan colour is commonly taken as a measure of viable cells.

Turning to `O=C1C[C@@H](c2ccccc2)Oc2cc(O[C@@H]3O[C@H](CO)[C@@H](O)[C@H](O)[C@H]3O)cc(O)c21`, the ED50 in series [1] is over 100 µM. For the same compound, the half-inhibitory concentration (IC50) in series [2] was found to be 19.2 µM. Moreover, in series [3], the viability at 24 h, up to 20 µM was found to be 74.5%.
Consider `COc1cc([C@@H]2CC(=O)c3c(O)cc(O[C@@H]4O[C@H](CO)[C@@H](O)[C@H](O)[C@H]4O)cc3O2)ccc1O`, for which the ED50 in series [1] was found to be 100 µM. For the same compound, in series [2], the IC50 turned out to be 23.4 µM. Also, the viability at 24 h, up to 20 µM in series [3] was 88.7%.
In the same order, the values of `COc1cc(CCCc2c(OC)cc(O)c(OC)c2OC)ccc1O[C@@H]1O[C@H](CO)[C@@H](O)[C@H](O)[C@H]1O` are over 100 µM, 30.2 µM and 77%.
In the case of `O=C1C[C@@H](c2ccc(O)c(O)c2)Oc2cc(O[C@@H]3O[C@H](CO)[C@@H](O)[C@H](O)[C@H]3O)cc(O)c21`, in series [1], the ED50 came out at 63.3 µM. In addition, the IC50 in series [2] was found to be 41.2 µM. Further, the viability at 24 h, up to 20 µM in series [3] came to 100%.
With `Cc1c(C)c2c(c(C)c1O)CC[C@@](C)(CCC[C@H](C)CCC[C@H](C)CCCC(C)C)O2`, in series [1], the ED50 is 28.4 µM.
In the case of `O=C1C[C@@H](c2ccc(O)cc2)Oc2cc(O[C@@H]3O[C@H](CO)[C@@H](O)[C@H](O)[C@H]3O)cc(O)c21` [PRUNIN], in series [1], the ED50 was over 100 µM. Moreover, the IC50 in series [2] was found to be 42.6 µM. For the same compound, in series [3], the viability at 24 h, up to 20 µM came to 100%.
Consider `O=c1c(O)c(-c2ccc(O)c(O)c2)oc2cc(O)cc(O)c12` [QUERCETIN], for which the IC50 in series [2] was 32.1 µM. The viability at 24 h, up to 20 µM in series [3] came out at 100%.
Consider `O=C(/C=C/c1ccccc1)O[C@H]1[C@H](Oc2cc(O)c3c(c2)O[C@H](c2ccc(O)c(O)c2)CC3=O)O[C@H](CO)[C@@H](O)[C@@H]1O` [VISARTISIDE A], for which the ED50 in series [1] turned out to be 37.6 µM. The IC50 in series [2] was 15.6 µM. Further, the viability at 24 h, up to 20 µM in series [3] is 100%.
`O=C(/C=C/c1ccccc1)OC[C@H]1O[C@@H](Oc2cc(O)c3c(c2)O[C@H](c2ccc(O)c(O)c2)CC3=O)[C@H](O)[C@@H](O)[C@@H]1O` [VISARTISIDE B]: the ED50 in series [1] is 34.1 µM. For the same compound, in series [2], the concentration for half-maximal inhibition (IC50) was 25.1 µM. For the same compound, the viability at 24 h, up to 20 µM in series [3] is 100%.
For `O=C(/C=C/c1ccccc1)OC[C@@]1(O)CO[C@@H](O[C@H]2[C@H](Oc3cc(O)c4c(c3)O[C@H](c3ccc(O)c(O)c3)CC4=O)O[C@H](CO)[C@@H](O)[C@@H]2O)[C@@H]1O` [VISARTISIDE C], in that order: over 100 µM, 14.9 µM and 99.7%.
For `O=C(/C=C/c1ccccc1)OC[C@@]1(O)CO[C@@H](O[C@@H]2[C@@H](O)[C@@H](O)O[C@H](CO)[C@H]2O)[C@@H]1O` [VISARTISIDE D], in that order: over 100 µM, 32.3 µM and 80.2%.
Turning to `O=C(/C=C/c1ccccc1)OC[C@@]1(O)CO[C@@H](O[C@@H]2[C@@H](O)[C@H](OCc3ccccc3)O[C@H](CO)[C@H]2O)[C@@H]1O` [VISARTISIDE E], in series [1], the ED50 was over 100 µM. Further, the IC50 in series [2] came out at 39.6 µM. The viability at 24 h, up to 20 µM in series [3] was 88.1%.
In the same order, the values of `COc1ccc(/C=C/CO[C@@H]2O[C@H](CO)[C@@H](O)[C@H](O[C@@H]3OC[C@](O)(COC(=O)/C=C/c4ccccc4)[C@H]3O)[C@H]2O)cc1O` [VISARTISIDE F] are over 100 µM, 27.8 µM and 85.2%.

Usually IC50 stands for the concentration needed to halve the response being measured.
